Assay results: patent publication EP4768499A1, “MACROCYCLIC PEPTIDE COMPOUND HAVING CELL MEMBRANE PERMEABILITY AND METABOLIC STABILITY, AND LIBRARY CONTAINING SAME” (Chugai Seiyaku Kabushiki Kaisha, priority 2023, dated 2025)
Starred links: 1 amine or outer side, 2 acyl side, 3 side chain; linkers in the order of their positions; H or OH if unused. Positions of bridges follow the written chain, without caps; N, C: chain ends. Non-standard residues stand in square brackets, D forms with d. Residues, ends and D or L forms follow the SMILES beside them. *: point of attachment. NMedβ3hAla = C[C@H](CC(=O)[*:2])N(C)[*:1]; NMeF = CN[C@@H](Cc1ccccc1)C(=O)O; NMeI = CC[C@H](C)[C@H](NC)C(=O)O; NMeT = CN[C@H](C(=O)O)[C@@H](C)O; hPhe = N[C@@H](CCc1ccccc1)C(=O)O; NMeβAla = CN(CCC(=O)[*:2])[*:1]; NMeL = CN[C@@H](CC(C)C)C(=O)O; NMeV = CN[C@H](C(=O)O)C(C)C; NMeAbu = CC[C@H](NC)C(=O)O; NMeA = CN[C@@H](C)C(=O)O; Piperidide = C1CCN(*)CC1; Abu = CC[C@H](N)C(=O)O; NBuGly = CCCCNCC(=O)O; βAla = NCCC(=O)O; Sar = CNCC(=O)O; tBu = CC(C)(C)*

Columns and labels:
Caco-2 cells = assay: Membrane permeability test using Caco-2 cells with preincubation; assay type: in vitro ADME; settings: Caco-2 cells, preincubation 20 to 24 hours; apical FaSSIF/HBSS 1% DMSO pH 6.0, basal HBSS 4% BSA pH 7.4; basal sample at 180 minutes
[1] = as above; assay type: in vitro ADME; settings: Caco-2; preincubation 20 to 24 hours; Apical FaSSIF/HBSS pH 6.0, Basal HBSS 4% BSA pH 7.4; 180 minutes; read-out: Caco2 Papp
[2] = Metabolic stability test: liver microsomal stability assay; assay type: in vitro ADME, mouse; settings: mouse liver microsomes 0.5 mg protein/mL, compound 1 µM; for microsomal CLint at 1 µM: male, pH 7.4, presence of NADPH, read-out: Mouse Hepatic Microsome CLh,int NADPH(+); for Mouse Hepatic Microsome CLh,int NADPH(-): absence of NADPH

Structure (SMILES): CC[C@@H]1NC(=O)[C@H](Cc2ccccc2)N(C)C(=O)[C@H](CC(C)C)NC(=O)CNC(=O)[C@H]([C@@H](C)O)N(C)C(=O)[C@H](CC(C)C)N(C)C(=O)[C@H]([C@@H](C)CC)NC(=O)[C@H](Cc2ccccc2)N(C)C(=O)CN(C)C(=O)C[C@@H](C(=O)N2CCCCC2)NC(=O)[C@H](C(C)C)N(C)C(=O)[C@H](CC(C)C)NC(=O)[C@H](C)N(C)C1=O [pd105] ([Sar][NMeF]I[NMeL][NMeT]GL[NMeF][Abu][NMeA]L[NMeV]D-Piperidide; lactam N-13)
- Caco2 Papp (10^-6 cm/sec) (Caco-2 cells): 0.11 10^-6 cm/sec
- Papp A→B [1]: 0.11 ×10⁻⁶ cm/s
- microsomal CLint at 1 µM [2]: 28.9 µL/min/mg
- Mouse Hepatic Microsome CLh,int NADPH(-) [2]: 22.7 µL/min/mg Protein

Structure (SMILES): CC[C@@H]1NC(=O)[C@H](C)N(C)C(=O)[C@H](CC(C)C)N(C)C(=O)[C@H]([C@@H](C)O)N(C)C(=O)[C@H](CC(C)C)N(C)C(=O)CCNC(=O)[C@H](Cc2ccccc2)N(C)C(=O)CN(C)C(=O)C[C@@H](C(=O)N2CCCCC2)NC(=O)[C@H](C(C)C)N(C)C(=O)[C@H](C)N(C)C(=O)[C@@H]2CCCN2C(=O)[C@H](C(C)C)NC(=O)[C@H](Cc2ccccc2)N(C)C1=O [pd005] ([Sar][NMeF][βAla][NMeL][NMeT][NMeL][NMeA][Abu][NMeF]VP[NMeA][NMeV]D-Piperidide; lactam N-14)
- Caco2 Papp (10^-6 cm/sec) (Caco-2 cells): 0.05 10^-6 cm/sec
- Papp A→B [1]: 0.05 ×10⁻⁶ cm/s
- microsomal CLint at 1 µM [2]: 1.4 µL/min/mg
- Mouse Hepatic Microsome CLh,int NADPH(-) [2]: 1.1 µL/min/mg Protein

Structure (SMILES): CC[C@H](C)[C@@H]1NC(=O)[C@H](Cc2ccccc2)N(C)C(=O)CN(C)C(=O)C[C@@H](C(=O)N2CCCCC2)NC(=O)[C@H]([C@@H](C)CC)N(C)C(=O)[C@H](COC(C)(C)C)NC(=O)[C@@H]2CCCN2C(=O)[C@H](CCc2ccccc2)NC(=O)[C@H](CC)N(C)C(=O)[C@H](CC(C)C)NC(=O)[C@H](CC(C)C)N(C)C(=O)[C@H]([C@@H](C)O)N(C)C(=O)[C@H](CC(C)C)N(C)C1=O [pd114] ([Sar][NMeF]I[NMeL][NMeT][NMeL]L[NMeAbu][hPhe]PS(tBu)[NMeI]D-Piperidide; lactam N-13)
- Caco2 Papp (10^-6 cm/sec) (Caco-2 cells): 0.16 10^-6 cm/sec
- Papp A→B [1]: 0.16 ×10⁻⁶ cm/s
- microsomal CLint at 1 µM [2]: 35.6 µL/min/mg
- Mouse Hepatic Microsome CLh,int NADPH(-) [2]: 29.2 µL/min/mg Protein

Structure (SMILES): CCCCN1CC(=O)N[C@@H](CC(C)C)C(=O)N(C)[C@@H]([C@@H](C)CC)C(=O)N(C)[C@@H]([C@@H](C)O)C(=O)N(C)[C@@H](Cc2ccccc2)C(=O)N[C@@H]([C@@H](C)CC)C(=O)N(C)[C@@H](CC(C)C)C(=O)N[C@H](C(=O)N2CCCCC2)CC(=O)N(C)[C@@H](C)C(=O)N[C@@H](CC(C)C)C(=O)N(C)[C@@H](CC(C)C)C(=O)N(C)[C@@H](Cc2ccccc2)C(=O)N[C@@H](CC)C1=O [pd111] ([NMeA]L[NMeL][NMeF][Abu][NBuGly]L[NMeI][NMeT][NMeF]I[NMeL]D-Piperidide; lactam N-13)
- Caco2 Papp (10^-6 cm/sec) (Caco-2 cells): 0.04 10^-6 cm/sec
- Papp A→B [1]: 0.04 ×10⁻⁶ cm/s
- microsomal CLint at 1 µM [2]: 18.7 µL/min/mg
- Mouse Hepatic Microsome CLh,int NADPH(-) [2]: 28.4 µL/min/mg Protein

Structure (SMILES): CC[C@@H]1NC(=O)[C@H](CC(C)C)N(C)C(=O)[C@H](COC(C)(C)C)NC(=O)[C@H]([C@@H](C)CC)N(C)C(=O)[C@H](CCc2ccccc2)NC(=O)[C@H](Cc2ccccc2)N(C)C(=O)[C@H]([C@@H](C)CC)NC(=O)[C@H](CC(C)C)N(C)C(=O)[C@H](CC(C)C)N(C)C(=O)CCN(C)C(=O)C[C@@H](C)N(C)C(=O)CN(C)C(=O)[C@H](CC(C)C)N(C)C(=O)[C@@H]2CCCN2C1=O [pd066] (cyclo([Abu]P[NMeL][Sar][NMedβ3hAla][NMeβAla][NMeL][NMeL]I[NMeF][hPhe][NMeI]S(tBu)[NMeL]))
- Caco2 Papp (10^-6 cm/sec) (Caco-2 cells): 0.33 10^-6 cm/sec
- Papp A→B [1]: 0.33 ×10⁻⁶ cm/s
- microsomal CLint at 1 µM [2]: 38.9 µL/min/mg
- Mouse Hepatic Microsome CLh,int NADPH(-) [2]: 36.4 µL/min/mg Protein
